Usually IC50 stands for the concentration at which inhibition is half-maximal.

In patent publication US20240343704A1, “HALO-SUBSTITUTED AMINO PYRIDINE COMPOUNDS AS INHIBITORS OF THE HAEMATOPOIETIC PROGENITOR KINASE 1 (HPK1)” (priority 2021, published 2024) one finds IC50 data, which are given here for 25 compounds.

Test [1] has as its target T1, Recombinant (1-346) HPK1 (h) (Homo sapiens, UniProt Q92918).
T1 construct: Recombinant (1-346) HPK1 (h) is incubated with 8 mM MOPS pH 7.0
T1 sequence (Q92918 1-346): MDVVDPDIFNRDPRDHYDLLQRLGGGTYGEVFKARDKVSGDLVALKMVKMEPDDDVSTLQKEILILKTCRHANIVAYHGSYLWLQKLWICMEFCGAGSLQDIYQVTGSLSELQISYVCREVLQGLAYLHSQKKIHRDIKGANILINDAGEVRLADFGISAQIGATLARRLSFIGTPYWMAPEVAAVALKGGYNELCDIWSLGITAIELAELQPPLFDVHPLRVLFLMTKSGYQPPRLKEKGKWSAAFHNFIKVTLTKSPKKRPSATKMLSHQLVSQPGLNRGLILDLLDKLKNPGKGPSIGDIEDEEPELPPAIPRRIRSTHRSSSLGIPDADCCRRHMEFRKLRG
Description: HPK1 Human STE Kinase Enzymatic Radiometric Assay. The conditions noted are these: read-out: HPK1 IC50 nM Range*. It is filed as biochemical. On the procedure: A stock solution of 10 mM of test compound is prepared in DMSO. The compound plate was prepared by 3-fold and 9-point serial dilutions. […] The reaction is initiated by The addition of the Mg/ATP mix. After incubation for 40 minutes at RT, the reaction is stopped by the addition of phosphoric acid to a concentration of 0.5%.

Test [2] addresses Lck (h) (Homo sapiens, UniProt P06239). Description: Lck Human  Kinase Enzymatic Radiometric Assay. Format: biochemical. The conditions noted are these: read-out: Lck IC50 nM Range*. In outline:
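Substrate 33P-incorporation measured by scintillation counting after spotting on P30 filtermat and phosphoric acid washes. Human Lck reacted 40 min at RT in 50 mM Tris pH 7.5 with 10 mM MgAcetate, [gamma-33P]-ATP, 250 uM Cdc2 peptide, 0.1 mM EGTA and 0.1 mM Na3VO4.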

Where only a bound is given, the exact number is not on record here.

Sequence of Lck (h) (P06239 whole entry): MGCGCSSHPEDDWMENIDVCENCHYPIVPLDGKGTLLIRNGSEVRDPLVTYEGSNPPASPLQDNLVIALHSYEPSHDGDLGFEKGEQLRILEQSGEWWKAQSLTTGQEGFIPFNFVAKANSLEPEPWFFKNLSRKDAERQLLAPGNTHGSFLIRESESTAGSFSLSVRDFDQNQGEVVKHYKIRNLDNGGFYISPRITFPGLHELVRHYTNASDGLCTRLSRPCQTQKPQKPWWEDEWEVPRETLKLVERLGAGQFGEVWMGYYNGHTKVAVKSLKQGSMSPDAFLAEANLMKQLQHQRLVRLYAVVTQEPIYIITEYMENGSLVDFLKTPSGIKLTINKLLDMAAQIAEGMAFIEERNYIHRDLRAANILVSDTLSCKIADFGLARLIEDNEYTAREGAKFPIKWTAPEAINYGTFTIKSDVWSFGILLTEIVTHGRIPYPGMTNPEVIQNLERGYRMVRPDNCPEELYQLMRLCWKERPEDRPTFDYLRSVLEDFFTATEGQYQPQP

For `CO[C@@H]1CCN(c2ccc(-c3cc(-c4ccc5c(c4)CCNC5=O)c(N)nc3F)cc2)C1` [I-114, (R)-6-(2-amino-6-fluoro-5-(4-(3-methoxypyrrolidin-1-yl)phenyl)pyridin-3-yl)-3,4-dihydroisoquinolin-1(2H)-one], the IC50 was 11 to 100 nM in test [1] and more than 1000 nM in test [2].
On to `CN1CCCN(c2ccc(-c3cc(-c4ccc5c(c4)CCNC5=O)c(N)nc3F)cc2)CC1` [I-277, 6-(2-amino-6-fluoro-5-(4-(4-methyl-1,4-diazepan-1-yl)phenyl)pyridin-3-yl)-3,4-dihydroisoquinolin-1(2H)-one], for which the 50% inhibitory concentration (IC50) in test [1] was 0.1 to 10 nM; in test [2] it was more than 1000 nM.
For `Nc1nc(F)c(-c2ccc(N3CC[C@H](F)C3)cc2)cc1-c1ccc2c(c1)CCNC2=O` [I-113, (S)-6-(2-amino-6-fluoro-5-(4-(3-fluoropyrrolidin-1-yl)phenyl)pyridin-3-yl)-3,4-dihydroisoquinolin-1(2H)-one], in that order: 11 to 100 nM and more than 1000 nM.
`Nc1nc(F)c(-c2ccnc(OCC3CC3)c2)cc1-c1cc2c(cc1F)C(=O)NCC2` [I-314, 6-(6-amino-2′-(cyclopropylmethoxy)-2-fluoro-[3,4′-bipyridin]-5-yl)-7-fluoro-3,4-dihydroisoquinolin-1(2H)-one]: the results for the concentration for half-maximal inhibition (IC50) in test [1] and in test [2] were 101 to 1000 nM and more than 1000 nM, respectively.
For `CC(=O)N1CCN(c2ccc(-c3cc(-c4cc5c(cc4F)C(=O)NCC5)c(N)nc3F)cn2)CC1` [I-221, 6-(6′-(4-acetylpiperazin-1-yl)-6-amino-2-fluoro-[3,3′-bipyridin]-5-yl)-7-fluoro-3,4-dihydroisoquinolin-1(2H)-one 2,2,2-trifluoroacetate], in that order: 11 to 100 nM and more than 1000 nM.
In the case of `Nc1nc(F)c(-c2ccc(N3CCN4CCOC[C@H]4C3)cc2)cc1-c1ccc2c(c1)CCNC2=O` [I-38, (R)-6-(2-amino-6-fluoro-5-(4-(hexahydropyrazino[2,1-c][1,4]oxazin-8(1H)-yl)phenyl)pyridin-3-yl)-3,4-dihydroisoquinolin-1(2H)-one], the IC50 in test [1] was 0.1 to 10 nM; in test [2] it was more than 1000 nM.
As for `Nc1nc(F)c(-c2ccc(N3CCN(CC4CC4)CC3)cc2)cc1-c1ccc2c(c1)CCNC2=O` [I-210, 6-(2-amino-5-(4-(4-(cyclopropylmethyl)piperazin-1-yl)phenyl)-6-fluoropyridin-3-yl)-3,4-dihydroisoquinolin-1(2H)-one], the concentration for half-maximal inhibition (IC50) in test [1] was 0.1 to 10 nM; in test [2], 101 to 1000 nM.
For `Nc1nc(F)c(-c2ccc(S(=O)(=O)C(F)(F)F)cc2)cc1-c1ccc2c(c1)CCNC2=O` [I-87, 6-(2-amino-6-fluoro-5-(4-((trifluoromethyl)sulfonyl)phenyl)pyridin-3-yl)-3,4-dihydroisoquinolin-1(2H)-one], the IC50 in test [1] was 11 to 100 nM; in test [2], more than 1000 nM.
For the compound `CN1C[C@@H]2C[C@]2(c2ccc(-c3cc(-c4cc(F)c5c(c4)CCNC5=O)c(N)nc3F)cc2)C1` [I-353, 6-(2-amino-6-fluoro-5-(4-((1S,5R)-3-methyl-3-azabicyclo[3.1.0]hexan-1-yl)phenyl)pyridin-3-yl)-8-fluoro-3,4-dihydroisoquinolin-1(2H)-one], the values for the IC50 in test [1] and in test [2] were 0.1 to 10 nM and 101 to 1000 nM, respectively.
As for `CC(C)[C@H]1CN(c2ccc(-c3cc(-c4ccc5c(c4)CCNC5=O)c(N)nc3F)c(F)c2)CCN1C` [I-51, (S)-6-(2-amino-6-fluoro-5-(2-fluoro-4-(3-isopropyl-4-methylpiperazin-1-yl)phenyl)pyridin-3-yl)-3,4-dihydroisoquinolin-1(2H)-one], the 50% inhibitory concentration (IC50) is 0.1 to 10 nM in test [1] and more than 1000 nM in test [2].
As to `COCCN1CCN(Cc2cccc(-c3cc(-c4ccc5c(c4)CCNC5=O)c(N)nc3F)c2)CC1` [I-329, 6-(2-amino-6-fluoro-5-(3-((4-(2-methoxyethyl)piperazin-1-yl)methyl)phenyl)pyridin-3-yl)-3,4-dihydroisoquinolin-1(2H)-one], the figures for the IC50 in test [1] and in test [2] were 101 to 1000 nM and more than 1000 nM, respectively.
Turning to `Nc1nc(F)c(-c2ccc(OC3CCN(CC(F)(F)F)CC3)cc2)cc1-c1ccc2c(c1)CCNC2=O` [I-186, 6-(2-amino-6-fluoro-5-(4-((1-(2,2,2-trifluoroethyl)piperidin-4-yl)oxy)phenyl)pyridin-3-yl)-3,4-dihydroisoquinolin-1(2H)-one], the figures for the half-inhibitory concentration (IC50) in test [1] and in test [2] were 11 to 100 nM and more than 1000 nM, respectively.
For `CCN1CCCC(c2ccc(-c3cc(-c4ccc5c(c4)CCNC5=O)c(N)nc3F)cc2)C1` (centres unmarked) [I-52, 6-(2-amino-5-(4-(1-ethylpiperidin-3-yl)phenyl)-6-fluoropyridin-3-yl)-3,4-dihydroisoquinolin-1(2H)-one], in that order: 0.1 to 10 nM and more than 1000 nM.
Turning to `Cc1cc(-c2cc(-c3ccc4c(c3)CCNC4=O)c(N)nc2F)cc2c1CCN(C)C2` [I-434, 6-(2-amino-5-(2,5-dimethyl-1,2,3,4-tetrahydroisoquinolin-7-yl)-6-fluoropyridin-3-yl)-3,4-dihydroisoquinolin-1(2H)-one], the 50% inhibitory concentration (IC50) is 0.1 to 10 nM in test [1] and more than 1000 nM in test [2].
Regarding `CN(C)Cc1nc(-c2cc(-c3ccc4c(c3)CCNC4=O)c(N)nc2F)ccc1N1CCOCC1` [I-551, 6-(6′-amino-6-((dimethylamino)methyl)-2′-fluoro-5-morpholino-[2,3′-bipyridin]-5′-yl)-3,4-dihydroisoquinolin-1(2H)-one], the IC50 in test [1] is 0.1 to 10 nM; in test [2] it was more than 1000 nM.
For `CN1C[C@@H]2C[C@H]1CN2c1ccc(-c2cc(-c3ccc4c(c3)CCNC4=O)c(N)nc2F)cc1` [I-18, 6-(2-amino-6-fluoro-5-(4-(5-methyl-2,5-diazabicyclo[2.2.1]heptan-2-yl)phenyl)pyridin-3-yl)-3,4-dihydroisoquinolin-1(2H)-one], the values for the IC50 in test [1] and in test [2] were 0.1 to 10 nM and more than 1000 nM, respectively.
`Cc1c[nH]c(=O)c2ccc(-c3cc(-c4ccc(C5CCOCC5)c(CN(C)C)c4)c(F)nc3N)cc12` [I-426, 6-(2-amino-5-(3-((dimethylamino)methyl)-4-(tetrahydro-2H-pyran-4-yl)phenyl)-6-fluoropyridin-3-yl)-4-methylisoquinolin-1(2H)-one]: the IC50 is 0.1 to 10 nM in test [1] and more than 1000 nM in test [2].
In the case of `CC(C)N1CCN(c2ccc(-c3cc(-c4cc(F)c5c(=O)[nH]cnc5c4)c(N)nc3F)cc2)CC1` [I-405, 7-(2-amino-6-fluoro-5-(4-(4-isopropylpiperazin-1-y)phenyl)pyridin-3-yl)-5-fluoroquinazolin-4(3H)-one], the IC50 was 0.1 to 10 nM in test [1] and more than 1000 nM in test [2].
On to `CC(C)N1CCOCC1c1ccc(-c2cc(-c3ccc4c(c3)CCNC4=O)c(N)nc2F)cc1` (centres unmarked) [I-132, 6-(2-amino-6-fluoro-5-(4-(4-isopropylmorpholin-3-yl)phenyl)pyridin-3-yl)-3,4-dihydroisoquinolin-1(2H)-one], for which the IC50 in test [1] is 0.1 to 10 nM; in test [2], more than 1000 nM.
Turning to `Cc1cc2cc(-c3cc(-c4ccc(N5CCN(CC6CC6)CC5)cc4)c(F)nc3N)cc(F)c2c(=O)[nH]1` [I-454, 6-(2-amino-5-(4-(4-(cyclopropylmethyl)piperazin-1-yl)phenyl)-6-fluoropyridin-3-yl)-8-fluoro-3-methylisoquinolin-1(2H)-one], the IC50 in test [1] was 0.1 to 10 nM; in test [2] it was more than 1000 nM.
Take `COc1cc(-c2cc(-c3ccc4c(c3)CCNC4=O)c(N)nc2F)ccc1OC1CCNCC1` [I-151, 6-(2-amino-6-fluoro-5-(3-methoxy-4-(piperidin-4-yloxy)phenyl)pyridin-3-yl)-3,4-dihydroisoquinolin-1(2H)-one]: the IC50 in test [1] is 11 to 100 nM; in test [2], more than 1000 nM.
Consider `Nc1nc(F)c(-c2ccc(C3CCOCC3)c([C@@H]3CCCN3)c2)cc1-c1cc2c(cc1F)C(=O)NCC2` [I-368, (S)-6-(2-amino-6-fluoro-5-(3-(pyrrolidin-2-yl)-4-(tetrahydro-2H-pyran-4-yl)phenyl)pyridin-3-yl)-7-fluoro-3,4-dihydroisoquinolin-1(2H)-one], for which the IC50 in test [1] lay in the range of 0.1 to 10 nM; in test [2] it was 11 to 100 nM.
In the case of `CC(C)N1CCCC(c2ccc(-c3cc(-c4ccc5c(c4)CCNC5=O)c(N)nc3F)cc2)C1` (centres unmarked) [I-80, 6-(2-amino-6-fluoro-5-(4-(1-isopropylpiperidin-3-yl)phenyl)pyridin-3-yl)-3,4-dihydroisoquinolin-1(2H)-one], the IC50 in test [1] was 0.1 to 10 nM; in test [2] it was more than 1000 nM.
As for `CCN1CC=C(c2ccc(-c3cc(-c4ccc5c(c4)CCNC5=O)c(N)nc3F)cc2)CC1` [I-76, 6-(2-amino-5-(4-(1-ethyl-1,2,3,6-tetrahydropyridin-4-yl)phenyl)-6-fluoropyridin-3-yl)-3,4-dihydroisoquinolin-1(2H)-one], the half-inhibitory concentration (IC50) in test [1] was 0.1 to 10 nM; in test [2] it was more than 1000 nM.
As to `CC(C)N1CCN(c2ccc(-c3cc(-c4cc5nc[nH]c(=O)c5cc4F)c(N)nc3F)cc2)CC1` [I-406, 7-(2-amino-6-fluoro-5-(4-(4-isopropylpiperazin-1-yl)phenyl)pyridin-3-yl)-6-fluoroquinazolin-4(3H)-one], the IC50 in test [1] was 0.1 to 10 nM; in test [2] it was more than 1000 nM.
